# Experiments:
# [1] = biological target: T1, IKZF1 (Homo sapiens, UniProt Q13422); test: IKZF1 Degradation Assay, HiBiT Method; format: cell-based; conditions: for DC50: NCIH929 cells expressing HiBiT-tagged IKZF1, 6 hours, top concentration 10 μM
# T1 construct: endogenously expressing IKZF1 with HiBiT fusion tag via CRISPR
# Description: Assay 2. IKZF1 Degradation Assay, HiBiT Method
# Selected compounds of this disclosure were tested in an IKZF1 degradation assay using the HiBiT Method.
# RPMI no-phenol red medium and fetal bovine serum (FBS) were purchased from Gibco (Grand Island, NY, USA). Nano-Glo® HiBiT Lytic Assay System was purchased from Promega (Madison, WI, USA). […] Cell culture flasks and 384-well microplates were acquired from VWR (Radnor, PA, USA).
# IKZF1 degradation was determined based on quantification of luminescent signal using Nano-Glo® HiBiT Lytic Assay kit. […] NCIH929 cells expressing HiBiT-tagged IKZF1 were added into 384-well plates in RPMI medium containing 10% FBS and 0.05 mM 2-mercaptoethanol at a cell density of 15000 cells per well. The plates were kept at 37° C. with 5% CO2 for 6 hours. Cells treated in the absence of the test compound were the negative control and wells containing media only were the positive control. After 6-hour incubation, Nano-Glo® HiBiT Lytic Assay reagents were added to the designated wells. Luminescence was acquired on EnVision® Multilabel Reader (PerkinElmer, Santa Clara, CA, USA).
# [2] = biological target: T2, IRAK4 (Homo sapiens, UniProt Q9NWZ3); test: IRAK4 Degradation Assay, HiBiT Method; format: cell-based; conditions: 293T cells expressing HiBiT-tagged IRAK4, 6 hours
# T2 construct: 293Tcells expressing HiBiT-tagged IRAK4 were then added into 384-well plates
# T2 sequence (Q9NWZ3 1-460): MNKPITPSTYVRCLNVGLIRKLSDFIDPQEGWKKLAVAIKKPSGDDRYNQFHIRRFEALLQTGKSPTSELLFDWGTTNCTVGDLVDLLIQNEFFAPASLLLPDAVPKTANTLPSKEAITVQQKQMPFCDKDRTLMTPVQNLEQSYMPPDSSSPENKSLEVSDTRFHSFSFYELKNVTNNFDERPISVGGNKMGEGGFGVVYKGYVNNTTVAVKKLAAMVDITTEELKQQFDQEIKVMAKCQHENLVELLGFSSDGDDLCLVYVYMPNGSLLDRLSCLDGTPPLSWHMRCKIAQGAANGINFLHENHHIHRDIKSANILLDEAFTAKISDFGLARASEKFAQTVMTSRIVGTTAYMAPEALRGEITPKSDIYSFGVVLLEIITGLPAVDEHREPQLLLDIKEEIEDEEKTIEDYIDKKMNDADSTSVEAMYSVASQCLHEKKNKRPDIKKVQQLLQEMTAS
# Summary of the method: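 293T cells with HiBiT knocked in at the C-terminus of endogenous IRAK4, 10,000 per well, treated 6 h at 37 °C with an 11-point half-log series ([…]), in duplicate. Remaining IRAK4 read by Nano-Glo HiBiT lytic luminescence against DMSO-only and media-only controls.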
# T1 sequence (Q96SW2 whole entry partner, the tested form may be a part): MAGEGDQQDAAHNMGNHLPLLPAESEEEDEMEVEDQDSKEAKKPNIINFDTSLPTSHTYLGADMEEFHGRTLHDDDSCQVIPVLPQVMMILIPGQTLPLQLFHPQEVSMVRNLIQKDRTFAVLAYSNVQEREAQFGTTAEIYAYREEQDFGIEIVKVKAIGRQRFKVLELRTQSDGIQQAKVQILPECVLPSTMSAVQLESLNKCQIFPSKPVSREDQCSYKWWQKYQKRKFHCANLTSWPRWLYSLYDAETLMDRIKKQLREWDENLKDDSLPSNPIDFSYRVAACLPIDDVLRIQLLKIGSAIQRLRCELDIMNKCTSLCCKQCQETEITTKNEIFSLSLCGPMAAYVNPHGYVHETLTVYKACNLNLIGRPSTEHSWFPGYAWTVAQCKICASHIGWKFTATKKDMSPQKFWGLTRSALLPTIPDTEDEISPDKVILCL
# T1 sequence (Q16531 whole entry partner, the tested form may be a part): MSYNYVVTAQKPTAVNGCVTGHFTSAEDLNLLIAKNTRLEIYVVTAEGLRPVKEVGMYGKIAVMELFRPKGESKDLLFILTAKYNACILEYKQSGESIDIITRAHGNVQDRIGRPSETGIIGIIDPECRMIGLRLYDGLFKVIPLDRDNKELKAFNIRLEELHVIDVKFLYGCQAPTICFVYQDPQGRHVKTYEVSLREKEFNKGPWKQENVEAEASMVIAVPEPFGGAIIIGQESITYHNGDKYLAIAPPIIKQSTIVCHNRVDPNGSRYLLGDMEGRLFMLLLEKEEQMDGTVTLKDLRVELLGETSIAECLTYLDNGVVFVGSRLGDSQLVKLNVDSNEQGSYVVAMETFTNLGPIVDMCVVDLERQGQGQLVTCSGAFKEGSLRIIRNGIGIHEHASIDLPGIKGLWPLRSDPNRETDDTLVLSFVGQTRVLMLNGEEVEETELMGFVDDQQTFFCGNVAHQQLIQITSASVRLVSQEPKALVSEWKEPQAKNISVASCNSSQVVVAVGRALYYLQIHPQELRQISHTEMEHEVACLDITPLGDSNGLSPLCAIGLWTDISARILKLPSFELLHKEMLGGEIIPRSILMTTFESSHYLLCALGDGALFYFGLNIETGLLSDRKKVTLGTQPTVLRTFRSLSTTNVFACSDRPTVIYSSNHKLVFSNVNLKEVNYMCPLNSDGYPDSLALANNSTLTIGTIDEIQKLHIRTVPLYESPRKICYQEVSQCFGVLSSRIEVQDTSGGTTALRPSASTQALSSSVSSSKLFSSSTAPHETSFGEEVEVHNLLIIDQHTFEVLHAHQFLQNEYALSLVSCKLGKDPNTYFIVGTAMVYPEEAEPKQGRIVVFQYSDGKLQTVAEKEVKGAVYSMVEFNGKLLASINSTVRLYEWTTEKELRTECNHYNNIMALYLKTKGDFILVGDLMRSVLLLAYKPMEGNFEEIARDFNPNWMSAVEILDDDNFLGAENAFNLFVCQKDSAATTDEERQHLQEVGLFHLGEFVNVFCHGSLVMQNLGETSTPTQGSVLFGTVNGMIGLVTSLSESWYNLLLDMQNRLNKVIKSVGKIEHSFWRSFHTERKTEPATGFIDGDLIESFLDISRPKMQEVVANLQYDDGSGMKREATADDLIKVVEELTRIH
# T1 sequence (Q13422 whole entry, the tested form may be a part): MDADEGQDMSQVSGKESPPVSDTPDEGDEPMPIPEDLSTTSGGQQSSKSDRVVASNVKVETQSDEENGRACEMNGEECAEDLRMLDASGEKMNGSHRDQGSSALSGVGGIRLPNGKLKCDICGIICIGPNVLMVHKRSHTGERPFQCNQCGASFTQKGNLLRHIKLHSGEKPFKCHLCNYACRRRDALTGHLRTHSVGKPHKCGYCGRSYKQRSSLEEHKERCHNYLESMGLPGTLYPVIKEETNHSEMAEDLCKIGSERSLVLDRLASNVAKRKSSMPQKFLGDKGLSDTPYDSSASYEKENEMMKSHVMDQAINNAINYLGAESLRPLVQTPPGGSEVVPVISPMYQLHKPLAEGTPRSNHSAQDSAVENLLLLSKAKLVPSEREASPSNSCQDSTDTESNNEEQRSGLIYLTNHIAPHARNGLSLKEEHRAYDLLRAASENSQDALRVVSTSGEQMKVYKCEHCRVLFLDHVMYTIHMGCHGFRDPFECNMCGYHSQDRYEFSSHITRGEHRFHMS
Structure (SMILES),DC50 [1] [nM],DC50 [2] [nM],"degradation of IKZF1 ([1]; NCIH929.11 cells, 6 hours) [%]"
"CC(C)Oc1cc2nn([C@H]3CC[C@H](CN4CCC(c5ccc(O[C@H]6CCC(=O)NC6=O)cc5)CC4)CC3)cc2cc1C(=O)Nc1cccn(C2CC2)c1=O (single isomer, unassigned) [Example 142]",> 10000,< 10,–
"CC(C)Oc1cc2nc([C@H]3CC[C@H](CN4CCC(c5ccc(C6CCC(=O)NC6=O)cc5F)CC4)CC3)cn2cc1C(=O)Nc1cccc(C(F)F)n1 (some centres unmarked) [Example 23, N-[6-(difluoromethyl)-2-pyridyl]-2-[4-[[4-[4-(2,6-dioxo-3-piperidyl)-2-fluoro-phenyl]-1-piperidyl]methyl]cyclohexyl]-7-isopropoxy-imidazo[1,2-a]pyridine-6-carboxamide]",> 10000,10 to 100,–
"CC(C)Oc1cc2nc([C@H]3CC[C@H](CN4CCC(c5ccc(OC6CCC(=O)NC6=O)cc5)CC4)CC3)cn2cc1C(=O)Nc1cccc(C(F)F)n1 (some centres unmarked) [Example 31, N-[6-(difluoromethyl)-2-pyridyl]-2-[4-[[4-[4-[(2,6-dioxo-3-piperidyl)oxy]phenyl]-1-piperidyl]methyl]cyclohexyl]-7-isopropoxy-imidazo[1,2-a]pyridine-6-carboxamide]",> 10000,10 to 100,–
"CC(C)Oc1cc2nc([C@H]3CC[C@H](CN4CCC(c5ccc6c(N7CCC(=O)NC7=O)nn(C)c6c5)CC4)CC3)cn2cc1C(=O)Nc1cccc(C(F)F)n1 [Example 38, N-[6-(difluoromethyl)-2-pyridyl]-2-[4-[[4-[3-(2,4-dioxohexahydropyrimidin-1-yl)-1-methyl-indazol-6-yl]-1-piperidyl]methyl]cyclohexyl]-7-isopropoxy-imidazo[1,2-a]pyridine-6-carboxamide]",> 10000,< 10,–
"CC(C)Oc1cc2nc([C@H]3CC[C@H](CN4CCN(c5ccc6c(N7CCC(=O)NC7=O)nn(C)c6c5)CC4)CC3)cn2cc1C(=O)Nc1cccc(C(F)F)n1 [Example 41, N-[6-(difluoromethyl)-2-pyridyl]-2-[4-[[4-[3-(2,4-dioxohexahydropyrimidin-1-yl)-1-methyl-indazol-6-yl]piperazin-1-yl]methyl]cyclohexyl]-7-isopropoxy-imidazo[1,2-a]pyridine-6-carboxamide]",> 10000,10 to 100,–
"CC(C)Oc1cc2nc(C3CCC(CN4CCC(c5ccc(C6CCC(=O)NC6=O)cc5F)CC4)CC3)cn2cc1C(=O)Nc1cnn2cccnc12 (centres unmarked) [Example 47, 2-[4-[[4-[4-(2,6-dioxo-3-piperidyl)-2-fluoro-phenyl]-1-piperidyl]methyl]cyclohexyl]-7-isopropoxy-N-pyrazolo[1,5-a]pyrimidin-3-yl-imidazo[1,2-a]pyridine-6-carboxamide]",> 10000,< 10,–
"CC(C)Oc1cc2nc([C@H]3CC[C@H](CN4CCC(c5ccc6c(c5)n(C)c(=O)n6C5CCC(=O)NC5=O)C(F)(F)C4)CC3)cn2cc1C(=O)Nc1cnn2cccnc12 (some centres unmarked) [Example 49, 2-[4-[[4-[1-(2,6-dioxo-3-piperidyl)-3-methyl-2-oxo-benzimidazol-5-yl]-3,3-difluoro-1-piperidyl]methyl]cyclohexyl]-7-isopropoxy-N-pyrazolo[1,5-a]pyrimidin-3-yl-imidazo[1,2-a]pyridine-6-carboxamide]",> 10000,< 10,–
"CC(C)Oc1cc2nn([C@H]3CC[C@H](CN4CC[C@H](c5cc6c(cc5F)c(N5CCC(=O)NC5=O)nn6C)[C@H](O)C4)CC3)cc2cc1C(=O)Nc1cccn([C@H]2C[C@H]2F)c1=O [Example 184, 2-((1S,4S)-4-(((3S,4R)-4-(3-(2,4-dioxotetrahydropyrimidin-1(2H)-yl)-5-fluoro-1-methyl-1H-indazol-6-yl)-3-hydroxypiperidin-1-yl)methyl)cyclohexyl)-N-(1-((1S,2R)-2-fluorocyclopropyl)-2-oxo-1,2-dihydropyridin-3-yl)-6-isopropoxy-2H-indazole-5-carboxamide]",–,< 10,–
"CC(C)Oc1cc2nc(C3CCC(CN4CC[C@H](c5cc6c(cc5F)c(N5CCC(=O)NC5=O)nn6C)[C@H](O)C4)CC3)cn2cc1C(=O)Nc1cccn([C@H]2C[C@H]2F)c1=O (stereo partly drawn) [Example 185, 2-((1S,4S)-4-(((3S,4R)-4-(3-(2,4-dioxotetrahydropyrimidin-1(2H)-yl)-5-fluoro-1-methyl-1H-indazol-6-yl)-3-hydroxypiperidin-1-yl)methyl)cyclohexyl)-N-(1-((1S,2R)-2-fluorocyclopropyl)-2-oxo-1,2-dihydropyridin-3-yl)-7-isopropoxyimidazo[1,2-a]pyridine-6-carboxamide]",–,< 10,–
"CC(C)Oc1nc2nc(C3CCN(C(=O)CC4CCN(c5ncc(C6CCC(=O)NC6=O)cc5F)CC4)CC3)cn2cc1C(=O)Nc1cccn([C@H]2C[C@H]2F)c1=O (stereo partly drawn) [Example 186, 2-(1-(2-(1-(5-(2,6-dioxopiperidin-3-yl)-3-fluoropyridin-2-yl)piperidin-4-yl)acetyl)piperidin-4-yl)-N-(1-((1S,2R)-2-fluorocyclopropyl)-2-oxo-1,2-dihydropyridin-3-yl)-7-isopropoxyimidazo[1,2-a]pyrimidine-6-carboxamide]",–,< 10,–
CC(C)Oc1cc2nn([C@H]3CC[C@H](CN4CC[C@H](c5ccc(OC6CCC(=O)NC6=O)cc5)[C@@H](O)C4)CC3)cc2cc1C(=O)Nc1cccn([C@H]2C[C@H]2F)c1=O (some centres unmarked) [Example 187],–,< 10,–
CC(C)Oc1cc2nc(C3CCN(C(=O)CC4CCN(c5cnc(C6CCC(=O)NC6=O)cn5)CC4)CC3)cn2cc1C(=O)Nc1cccn([C@H]2C[C@H]2F)c1=O (some centres unmarked) [Example 189],–,< 10,–
CC(C)Oc1cc2nc([C@H]3CC[C@H](CN4CC5(CCN(c6ncc(N7CCC(=O)NC7=O)cc6F)CC5)C4)CC3)cn2cc1C(=O)Nc1cccn(C2CC2)c1=O [Example 190],–,10 to 100,–
CO[C@H]1CN(C[C@H]2CC[C@H](c3cn4cc(C(=O)Nc5cccn([C@H]6C[C@H]6F)c5=O)c(OC(C)C)cc4n3)CC2)CC[C@H]1c1ccc2c(N3CCC(=O)NC3=O)nn(C)c2c1 [Example 191],–,< 10,–
CC(C)Oc1nc2nc([C@H]3CC[C@H](CN4CCC(c5ccc6c(c5)n(C)c(=O)n6C5CCC(=O)NC5=O)CC4)CC3)cn2cc1C(=O)Nc1cccn([C@H]2C[C@H]2F)c1=O (some centres unmarked) [Example 192],–,< 10,–
CC(C)Oc1nc2nc(C3CCN(C(=O)N(C)C4CCN(c5ncc(C6CCC(=O)NC6=O)cc5F)CC4)CC3)cn2cc1C(=O)Nc1cccn([C@H]2C[C@H]2F)c1=O (some centres unmarked) [Example 193],–,10 to 100,–
CC(C)Oc1cc2nc([C@H]3CC[C@](F)(CN4CCC(c5ccc6c(c5)n(C)c(=O)n6C5CCC(=O)NC5=O)CC4)CC3)cn2cc1C(=O)Nc1cccn([C@H]2C[C@H]2F)c1=O (some centres unmarked) [Example 194],–,10 to 100,–
CC(C)Oc1nc2nc(C3CCN(C(=O)N(C)C4CCN(c5ncc(C6CCC(=O)NC6=O)cc5F)CC4)CC3)cn2cc1C(=O)Nc1cccn(C2CC2)c1=O (centres unmarked) [Example 195],–,10 to 100,–
CC(C)Oc1nc2nc(C3CCN(C(=O)CC4CC5(C4)CN(c4ccc(C6CCC(=O)NC6=O)cn4)C5)CC3)cn2cc1C(=O)Nc1cccn([C@H]2C[C@H]2F)c1=O (some centres unmarked) [Example 196],–,< 10,–
"CC(C)Oc1nc2nc(C3CCC(CN4CCC(c5cc6c(cc5F)c(N5CCC(=O)NC5=O)nn6C)CC4)CC3)cn2cc1C(=O)Nc1cccn([C@H]2C[C@H]2F)c1=O (stereo partly drawn) [Example 197, 2-[4-[[4-[3-(2,4-dioxohexahydropyrimidin-1-yl)-5-fluoro-1-methyl-indazol-6-yl]-1-piperidyl]methyl]cyclohexyl]-N-[1-[(1S,2R)-2-fluorocyclopropyl]-2-oxo-3-pyridyl]-7-isopropoxy-imidazo[1,2-a]pyrimidine-6-carboxamide]",–,< 10,–
"CC(C)Oc1cc2nn([C@H]3CC[C@H](CN4CCC(c5cc6c(cc5F)c(N5CCC(=O)NC5=O)nn6C)CC4)CC3)cc2cc1C(=O)Nc1cccn(C2CC2)c1=O [Example 198, N-(1-cyclopropyl-2-oxo-1,2-dihydropyridin-3-yl)-2-((r,4r)-4-((4-(3-(2,4-dioxotetrahydropyrimidin-1(2H)-yl)-5-fluoro-1-methyl-1H-indazol-6-yl)piperidin-1-yl)methyl)cyclohexyl)-6-isopropoxy-2H-indazole-5-carboxamide]",–,< 10,–
"Nc1cccc2c1C(=O)N(C1CCC(=O)NC1=O)C2=O (centres unmarked) [pomalidomide, reference compound]",–,–,90

# From patent publication US20240343733A1, “COMPOUNDS FOR TARGETING DEGRADATION OF IRAK4 PROTEINS” (BIOGEN MA INC., priority 2021, published 2024)
